Reference: patent US8158589B2, “Peptides with the capacity to bind to transforming growth factor β1 (TGF-β1)” (Proyecto Biomedicine Cima, S.L., priority 2003, dated 2012)
Ends that are not written are not given here.

Tests used:
TGF-β1 [1] = target: TGF-β1 (Homo sapiens, UniProt P01137); assay: Biopanning of phage-displayed 15-aa peptide library on biotinylated TGF-β1, number of colonies per sequence; format: binding; design: purchased Roche; host or cells: added to Mv-1-Lu (CCL-64) mink lung epithelial cells; settings: clones carrying the sequence among 108 colonies after the last biopanning cycle; approximate indication of affinity for TGF-β1
Chain of TGF-β1 (Homo sapiens, UniProt P01137) (P01137 279-390 limits assumed, species assumed): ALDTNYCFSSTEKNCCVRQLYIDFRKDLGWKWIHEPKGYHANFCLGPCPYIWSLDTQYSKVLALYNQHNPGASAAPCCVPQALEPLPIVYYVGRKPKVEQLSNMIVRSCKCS
Text: These libraries comprise a plurality of filamentous bacteriophages (M13), each one containing a peptide genetically fused to a protein of the virus envelope—in this case bound to the N-terminal end of envelope protein pIII (FIG. 1). […] In the phage libraries, the sequence encoding the peptide originates from a sequence degenerated in each one of the 15 positions with the 20 natural amino acids, thus allowing the presentation of 1.1×10^12 possible sequences of 15 amino acids in different phages. The physical ratio, 1:1, between the peptide sequence and the DNA encoding it within the bacteriophage allows the selection (from a broad range of variants) of those sequences that specifically bind to TGF-β1. This process is carried out via an in vitro selection protocol known as “biopanning”.
This technique involves incubating a set of phages representative (to practical effects) of all the 15-aa variants, in a plate blocked with streptavidin (10 μg/ml in 0.1 M NaHCO3, during 2 h at room temperature) to which biotinylated TGF-β1 is added. […] TGF-β1 contacts the peptides carried by the phages at a concentration of […]. After about 12 hours incubation, unbound phages are eliminated by 5 washings with PBS/Tween (phosphate buffered saline/polyoxyalkylene derivatives of sorbitan fatty acid esters). […] The eluted phages are then amplified by infection in a bacterial strain (E. coli). The process is repeated three cycles so that an enrichment in the content of phages which specifically bind, and with high affinity, to TGF-β1 is achieved (FIG. 3). […] Thus, the phages selected in each cycle show more and more affinity for TGF-β1. At the end of the process, phages which have been selected for their affinity for TGF-β1, are sequenced by using primers, after isolation by tetracycline resistance of the genetically modified phages after infecting E. coli cells. […] The number of times which a sequence is repeated, corresponding to a 15 amino acids peptide carried by each clone, from the total of sequenced colonies is an indication of the degree of relative affinity of said 15 amino acids sequence for TGF-β1.
The selection of clones, obtained from the “biopanning”, was carried out by selection of the bacterial colonies infected with the phages in the presence of a bacterial antibiotic; the bacteria resistance is acquired by a tetracycline resistance gene encoded by the phage genome. Thus, only those colonies infected with bacteriophages are able to grow. This means that each colony contains the genome of only one phage coding for only one peptide presented in its surface.
A total number of 108 colonies of phage-infected bacteria were obtained from the last selection cycle of “biopanning”. The sequence of the regions coding for the peptides present in the pIII protein was carried out using primers identified with SEQ ID NO: 23. This table also reflects the number of colonies (clones) carrying said sequences.
The number of clones (colonies) of each sequence gives an approximate indication of the degree of affinity of the peptide for TGF-β1, that is, the more colonies the more binding affinity.

TGF-β1 [2] = target: T1, TGF-β1 (Mus musculus, UniProt P04202); assay: Bleomycin-induced pulmonary fibrosis, preventive treatment started two days after bleomycin; format: in vivo, mice
T1 construct: from tissue; host or cells: liver of Balb/C mice (CCl4 model); lung of C57BL/6 mice (bleomycin model)
T1 sequence (P04202 279-390 limits assumed): as the sequence (P01137 279-390 limits assumed, species assumed) above, with A75S counted along it
Description: Female C57BL/6 mice (6-8 weeks of age) were obtained from Harlan SL (Barcelona, Spain) and maintained in accordance with the ethical committee of Universidad de Navarra (Spain) for the experimental use of animals. Lung injury was induced with 0.08 units/mouse of bleomycin sulfate (Sigma, Spain) diluted in 200 μl of phosphate buffered saline (PBS). Briefly, the suspension of bleomycin was instilled by pippeting into the nose of mice previously anesthetized with 2% isoflurane vapor. PBS was instilled in mice as a negative control for pulmonary fibrosis (PF), following the same procedures. Peptide treatment was started two days after bleomycin challenge and it was administered intraperitoneally in 500 μl of PBS on alternate days. Mice received high (75 μg/mouse) or low (25 μg/mouse) doses of P17, or the high dose (75 μg/mouse) of control peptide P301. […] To study the therapeutic effect of P17 in the development of fibrosis, it was administered daily ten days after bleomycin challenge, once fibrosis was established. Twenty six days after bleomycin instillation, mice were sacrificed and lung samples were fixed in order to evaluate histological damage.
Total RNA was purified from IMR-90 fibroblasts and whole lung samples using Ultraspec RNA (Biotecx; Houston, Tex.) according to the manufacturer's instructions. First, 1 μg of RNA was incubated with Dnase I (2 U/μl) (Gibco-BRL) for 30 min at 37° C. Then, samples were reverse-transcribed with the M-MLV Reverse transcriptase (Gibco-BRL) in the presence of RNaseOUT (Gibco-BRL) with ramdon hexamers and poly (dT) oligos according to the manufacturer's protocol. Expression of human Connective Tissue Growth Factor (CTGF) mRNA induced by TGF-β1 in IMR-90 fibroblasts was measured by real time RT-PCR using an ICycler and IQ SYBR Supermix (Bio-Rad, Italy). Actin was used as endogenous reference housekeeping gene. For in vivo analysis, expression of murine Fibronectin (FN), extra domain A of Fibronectin (EDA-FN), Collagen type I and Interferon gamma (IFN-γ) was measured in lungs, using Histone 3 as internal control. The amount of each transcript was expressed by the formula: 2^ΔCt (ΔCt=Ct(control gene)−Ct(gene)), wherein Ct is the threshold cycle number at which an increase in the signal associated with exponential growth of PCR products begins to be detected using Bio-Rad analysis software.
Lungs were fixed by inflation with 4% paraformaldehyde overnight and dehydrated in 70% ethanol. Tissue was embedded in paraffin wax, 3 μm thick sections were prepared and stained with Masson's trichrome to measure collagen deposition. Percentage of fibrosis in the lung was evaluated by light microscopy by three different qualified persons using a blinded system.
Dewaxed and rehydrated lung tissue sections were subjected to endogenous peroxidase inactivation with a blocking reagent (DakoCytomation, Denmark) for 10 min. They were then incubated for two hours with a 1/50 dilution in PBS of mouse anti-human α-SMA monoclonal antibody (DakoCytomation) that cross-reacts with mouse α-SMA. Next, sections were incubated for 1 hour with a peroxidase-labeled polyclonal rabbit anti-mouse immunoglobulin (DakoCytomation). Peroxidase activity was visualized using DAB+ Chromogen (DakoCytomation) as substrate and sections were counterstained with Harris hematoxylin. Expression of αSMA was evaluated by light microscopy and expressed as percentage of α-SMA positive area.
Lymphocyte infiltrate in the lungs was also determined by immunohistochemical analysis. In this case, lung sections were incubated with a mouse anti-human αCD3 monoclonal antibody that cross-reacts with mouse CD3 (NeoMarkers, CA) and then with an anti-mouse immunoglobulin coupled with peroxidase (DakoCytomation). CD3-positive cells were counted in a whole lobe (about 20 fields).

[3] = 75 μg/mouse, 14 days after bleomycin instillation, RT-PCR

KRIWFIPRSSWYERA [SEQ ID NO: 17, KRIWFIPRSSWYERA]
No. colonies (TGF-β1 [1]): 3 | lung fibrosis (Masson's Trichrome) (TGF-β1 [2]; 25 μg/mouse intraperitoneally on alternate days from day 2, day 26): No beneficial effect | lung fibrosis (Masson's Trichrome) (TGF-β1 [2]; 75 μg/mouse intraperitoneally on alternate days from day 2, day 26, vs control peptide): significant decrease of fibrosis | collagen type I mRNA in lungs (TGF-β1 [2]; [3]): significant reduction | fibronectin mRNA in lungs (TGF-β1 [2]; [3]): significantly downregulated | EDA-FN mRNA in lungs (TGF-β1 [2]; 75 μg/mouse, 14 days after bleomycin instillation, vs control peptide): lower expression levels | IFN-γ mRNA expression in lungs (TGF-β1 [2]; 75 μg/mouse, RT-PCR): upregulated | T lymphocytes (CD3+ cells) in lung sections (TGF-β1 [2]; 75 μg/mouse, vs bleomycin mice with or without P301): significant reduction | IL-10 or IL-4 mRNA expression in lungs (TGF-β1 [2]; P17 vs P301 control peptide, RT-PCR, data not shown): did not show any significant difference | areas of myofibroblasts (α-SMA expression) in lungs (TGF-β1 [2]; high dose 75 μg/mouse, immunohistochemistry): fewer areas of myofibroblasts
